Test results as given in patent US8563542B2 (Cyclacel Limited, priority 2007, dated 2013).
Read-outs that look alike come from different tables or passages of the source.

Target: PLK1 (Homo sapiens, UniProt P53350)
Assay: PLK1 protein kinase assay (CDC25C phosphorylation, [γ-32P]-ATP)
Format: biochemical
Conditions: for IC50: read-out: PLK1 IC50
[1] = Table 2, PLK1 IC50, class symbols

PLK1, sequence (P53350 whole entry): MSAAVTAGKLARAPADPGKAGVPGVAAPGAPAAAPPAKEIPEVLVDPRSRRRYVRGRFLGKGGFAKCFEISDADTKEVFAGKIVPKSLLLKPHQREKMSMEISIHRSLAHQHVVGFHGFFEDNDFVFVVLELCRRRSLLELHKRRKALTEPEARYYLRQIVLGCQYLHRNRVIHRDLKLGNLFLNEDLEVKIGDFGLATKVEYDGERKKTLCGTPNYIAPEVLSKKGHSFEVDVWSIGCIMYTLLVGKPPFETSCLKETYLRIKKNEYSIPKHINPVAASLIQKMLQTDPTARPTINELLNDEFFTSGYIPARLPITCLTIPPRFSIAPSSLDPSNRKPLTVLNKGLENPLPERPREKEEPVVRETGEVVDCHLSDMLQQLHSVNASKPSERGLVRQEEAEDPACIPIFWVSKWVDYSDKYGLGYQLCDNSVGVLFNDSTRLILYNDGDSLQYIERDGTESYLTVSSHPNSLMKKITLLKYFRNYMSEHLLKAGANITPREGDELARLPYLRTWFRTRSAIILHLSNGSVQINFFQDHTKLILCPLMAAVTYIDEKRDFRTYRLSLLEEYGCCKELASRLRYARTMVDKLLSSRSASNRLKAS

| SMILES | IC50 (Table 3) [nM] | Ki (Table 6) [nM] | IC50 [1] [nM] |
| --- | --- | --- | --- |
| COc1cc(C(=O)NC2CN3CCC2CC3)ccc1Nc1ncc2c(n1)N(C1CCCC1)CC1(CC1)C(=O)N2C (racemic) [Compound 186, (±)-4-(9′-cyclopentyl-5′-methyl-6′-oxo-5′,6′,8′,9′-tetrahydrospiro[cyclopropane-1,7′-pyrimido[4,5-b][1,4]diazepine]-2′-ylamino)-3-methoxy-N-(quinuclidin-3-yl)benzamide] | < 100 |  | < 100 |
| COc1cc(C(=O)NC2CN3CCC2CC3)ccc1Nc1ncc2c(n1)N(C1CCCC1)CC(C)(C)C(=O)N2C (racemic) [Compound 194, (±)-4-(9-cyclopentyl-5,7,7-trimethyl-6-oxo-6,7,8,9-tetrahydro-5H-pyrimido[4,5-b][1,4]diazepin-2-ylamino)-3-methoxy-N-(quinuclidin-3-yl)benzamide] | < 100 |  | < 100 |
| COc1cc(C(=O)NN2CCN(C)CC2)ccc1Nc1ncc2c(n1)N(C1CCCC1)CC1(CCC1)C(=O)N2C [Compound 221, 4-(9′-cyclopentyl-5′-methyl-6′-oxo-5′,6′,8′,9′-tetrahydrospiro[cyclobutane-1,7′-pyrimido[4,5-b][1,4]diazepine]-2′-ylamino)-3-methoxy-N-(4-methylpiperazin-1-yl)benzamide] | < 100 |  | < 100 |
| COc1cc(C(=O)NN2CCN(C)CC2)ccc1Nc1ncc2c(n1)N(C1CCCC1)CC1(CC1)C(=O)N2C [Compound 254, 4-(9′-cyclopentyl-5′-methyl-6′-oxo-5′,6′,8′,9′-tetrahydrospiro[cyclopropane-1,7′-pyrimido[4,5-b][1,4]diazepine]-2′-ylamino)-3-methoxy-N-(4-methylpiperazin-1-yl)benzamide] | < 100 | < 10 | < 100 |
| COc1cc(C(=O)N[C@H]2CN3CCC2CC3)ccc1Nc1ncc2c(n1)N(C1CCCC1)CC1(CC1)C(=O)N2C [Compound 347, (R)-4-(9′-cyclopentyl-5′-methyl-6′-oxo-5′,6′,8′,9′-tetrahydrospiro[cyclopropane-1,7′-pyrimido[4,5-b][1,4]diazepine]-2′-ylamino)-3-methoxy-N-(quinuclidin-3-yl)benzamide] | < 100 |  | < 100 |
| COc1cc(C(=O)N[C@@H]2CN3CCC2CC3)ccc1Nc1ncc2c(n1)N(C1CCCC1)CC1(CC1)C(=O)N2C [Compound 348, (S)-4-(9′-cyclopentyl-5′-methyl-6′-oxo-5′,6′,8′,9′-tetrahydrospiro[cyclopropane-1,7′-pyrimido[4,5-b][1,4]diazepine]-2′-ylamino)-3-methoxy-N-(quinuclidin-3-yl)benzamide] | < 100 |  | < 100 |
| COc1cc(C(=O)N[C@H]2CC[C@H](N3CCN(CC4CC4)CC3)CC2)ccc1Nc1ncc2c(n1)N(C1CCCC1)CC1(CC1)C(=O)N2C [Compound 371, 4-(9′-cyclopentyl-5′-methyl-6′-oxo-5′,6′,8′,9′-tetrahydrospiro[cyclopropane-1,7′-pyrimido[4,5-b][1,4]diazepine]-2′-ylamino)-N-((trans)-4-(4-(cyclopropylmethyl)piperazin-1-yl)cyclohexyl)-3-methoxybenzamide] | < 100 |  |  |
| CN1CCN(NC(=O)c2ccc(Nc3ncc4c(n3)N(C3CCCC3)CC3(CCC3)C(=O)N4C)c(F)c2)CC1 [Compound 373, 4-(9′-cyclopentyl-5′-methyl-6′-oxo-5′,6′,8′,9′-tetrahydrospiro[cyclobutane-1,7′-pyrimido[4,5-b][1,4]diazepine]-2′-ylamino)-3-fluoro-N-(4-methylpiperazin-1-yl)benzamide] | < 100 |  |  |
| CN1CCN(NC(=O)c2ccc(Nc3ncc4c(n3)N(C3CCCC3)CC3(CC3)C(=O)N4C)c(F)c2)CC1 [Compound 374, 4-(9′-Cyclopentyl-5′-methyl-6′-oxo-5′,6′,8′,9′-tetrahydrospiro[cyclopropane-1,7′-pyrimido[4,5-b][1,4]diazepine]-2′-ylamino)-3-fluoro-N-(4-methylpiperazin-1-yl)benzamide] | < 100 |  |  |
| COc1cc(C(=O)N[C@H]2CC[C@H](N3CCN(CC4CC4)CC3)CC2)ccc1Nc1ncc2c(n1)N(C1CCCC1)CC1(CCC1)C(=O)N2C [Compound 377, 4-(9′-cyclopentyl-5′-methyl-6′-oxo-5′,6′,8′,9′-tetrahydrospiro[cyclobutane-1,7′-pyrimido[4,5-b][1,4]diazepine]-2′-ylamino)-N-((trans)-4-(4-(cyclopropylmethyl)piperazin-1-yl)cyclohexyl)-3-methoxybenzamide] | < 100 |  |  |
| COc1cc(C(=O)N[C@H]2CC[C@H](N3CCN(CC4CC4)CC3)CC2)ccc1Nc1ncc2c(n1)N(C1CCCC1)CCC(=O)N2C [Compound 378, 4-(9-cyclopentyl-5-methyl-6-oxo-6,7,8,9-tetrahydro-5H-pyrimido[4,5-b][1,4]diazepin-2-ylamino)-N-((trans)-4-(4-(cyclopropylmethyl)piperazin-1-yl)cyclohexyl)-3-methoxybenzamide] | < 100 |  |  |
| CCN1CCN([C@H]2CC[C@@H](NC(=O)c3ccc(Nc4ncc5c(n4)N(C4CCCC4)CC4(CC4)C(=O)N5C)c(OC)c3)CC2)CC1 [Compound 380, 4-(9′-cyclopentyl-5′-methyl-6′-oxo-5′,6′,8′,9′-tetrahydrospiro[cyclopropane-1,7′-pyrimido[4,5-b][1,4]diazepine]-2′-ylamino)-N-((cis)-4-(4-ethylpiperazin-1-yl)cyclohexyl)-3-methoxybenzamide] | < 100 |  |  |
| COc1cc(C(=O)NC2CCC(N3CCCN(CC4CC4)CC3)CC2)ccc1Nc1ncc2c(n1)N(C1CCCC1)CC1(CC1)C(=O)N2C (centres unmarked) [Compound 381, 4-(9′-cyclopentyl-5′-methyl-6′-oxo-5′,6′,8′,9′-tetrahydrospiro[cyclopropane-1,7′-pyrimido[4,5-b][1,4]diazepine]-2′-ylamino)-N-(4-(4-(cyclopropylmethyl)-1,4-diazepan-1-yl)cyclohexyl)-3-methoxybenzamide] | < 100 |  |  |
| COc1cc(C(=O)NC2CCC(N3CCCN(Cc4ccccc4)CC3)CC2)ccc1Nc1ncc2c(n1)N(C1CCCC1)CC1(CC1)C(=O)N2C (centres unmarked) [Compound 383, N-(4-(4-benzyl-1,4-diazepan-1-yl)cyclohexyl)-4-(9′-cyclopentyl-5′-methyl-6′-oxo-5′,6′,8′,9′-tetrahydrospiro[cyclopropane-1,7′-pyrimido[4,5-b][1,4]diazepine]-2′-ylamino)-3-methoxybenzamide] | 100 to 1000 |  |  |
| COc1cc(C(=O)N[C@H]2CC[C@@H](N3CCN(C)CC3)CC2)ccc1Nc1ncc2c(n1)N(C1CCCC1)CC1(CC1)C(=O)N2C [Compound 385, 4-(9′-cyclopentyl-5′-methyl-6′-oxo-5′,6′,8′,9′-tetrahydrospiro[cyclopropane-1,7′-pyrimido[4,5-b][1,4]diazepine]-2′-ylamino)-N-((cis)-4-(4-methylpiperazin-1-yl)cyclohexyl)-3-methoxybenzamide] | < 100 |  |  |

More lines, main results first:

| IC50 (Table 3) [nM] | Ki (Table 6) [nM] | SMILES | IC50 [1] [nM] |
| --- | --- | --- | --- |
| < 100 |  | COc1cc(C(=O)NN2CCN(C)CC2)ccc1Nc1ncc2c(n1)N(C1CCCC1)CC(C)(C)C(=O)N2C [Compound 195, 4-(9-Cyclopentyl-5,7,7-trimethyl-6-oxo-6,7,8,9-tetrahydro-5H-pyrimido[4,5-b][1,4]diazepin-2-ylamino)-3-methoxy-N-(4-methyl-piperazin-1-yl)-benzamide] | < 100 |
| < 100 |  | COc1cc(C(=O)NC2CCN(C3CCOCC3)CC2)ccc1Nc1ncc2c(n1)N(C1CCCC1)CCC(=O)N2C [Compound 345, 4-(9-Cyclopentyl-5-methyl-6-oxo-6,7,8,9-tetrahydro-5H-pyrimido[4,5-b][1,4]diazepin-2-ylamino)-3-methoxy-N-[1-(tetrahydro-pyran-4-yl)-piperidin-4-yl]-benzamide] | < 100 |
| < 100 |  | COc1cc(C(=O)NN2CCN(CCO)CC2)ccc1Nc1ncc2c(n1)N(C1CCCC1)CC1(CC1)C(=O)N2C [Compound 375, 4-(9′-Cyclopentyl-5′-methyl-6′-oxo-5′,6′,8′,9′-tetrahydrospiro[cyclopropane-1,7′-pyrimido[4,5-b][1,4]diazepine]-2′-ylamino)-N-(4-(2-hydroxyethyl)piperazin-1-yl)-3-methoxybenzamide] |  |
| < 100 |  | COc1cc(C(=O)NN2CCOCC2)ccc1Nc1ncc2c(n1)N(C1CCCC1)CC1(CC1)C(=O)N2C [Compound 376, 4-(9′-Cyclopentyl-5′-methyl-6′-oxo-5′,6′,8′,9′-tetrahydrospiro[cyclopropane-1,7′-pyrimido[4,5-b][1,4]diazepine]-2′-ylamino)-3-methoxy-N-morpholinobenzamide] |  |
| < 100 |  | CCN1CCN([C@H]2CC[C@H](NC(=O)c3ccc(Nc4ncc5c(n4)N(C4CCCC4)CC4(CC4)C(=O)N5C)c(OC)c3)CC2)CC1 [Compound 379, 4-(9′-cyclopentyl-5′-methyl-6′-oxo-5′,6′,8′,9′-tetrahydrospiro[cyclopropane-1,7′-pyrimido[4,5-b][1,4]diazepine]-2′-ylamino)-N-((trans)-4-(4-ethylpiperazin-1-yl)cyclohexyl)-3-methoxybenzamide] |  |
| < 100 |  | CCN1CCCN(C2CCC(NC(=O)c3ccc(Nc4ncc5c(n4)N(C4CCCC4)CC4(CC4)C(=O)N5C)c(OC)c3)CC2)CC1 (centres unmarked) [Compound 382, 4-(9′-cyclopentyl-5′-methyl-6′-oxo-5′,6′,8′,9′-tetrahydrospiro[cyclopropane-1,7′-pyrimido[4,5-b][1,4]diazepine]-2′-ylamino)-N-(4-(4-ethyl-1,4-diazepan-1-yl)cyclohexyl)-3-methoxybenzamide] |  |
| < 100 |  | COc1cc(C(=O)N[C@H]2CC[C@H](N3CCN(C)CC3)CC2)ccc1Nc1ncc2c(n1)N(C1CCCC1)CC1(CC1)C(=O)N2C [Compound 384, 4-(9′-cyclopentyl-5′-methyl-6′-oxo-5′,6′,8′,9′-tetrahydrospiro[cyclopropane-1,7′-pyrimido[4,5-b][1,4]diazepine]-2′-ylamino)-N-((trans)-4-(4-methylpiperazin-1-yl)cyclohexyl)-3-methoxybenzamide] |  |
| < 100 |  | COc1cc(C(=O)N[C@H]2CC[C@H](N3CCN(Cc4ccccc4)CC3)CC2)ccc1Nc1ncc2c(n1)N(C1CCCC1)CC1(CC1)C(=O)N2C [Compound 386, N-((trans)-4-(4-benzylpiperazin-1-yl)cyclohexyl)-4-(9′-cyclopentyl-5′-methyl-6′-oxo-5′,6′,8′,9′-tetrahydrospiro[cyclopropane-1,7′-pyrimido[4,5-b][1,4]diazepine]-2′-ylamino)-3-methoxybenzamide] |  |
